From patent US20060276534A1, “Methods of decreasing calcification” (Amgen Inc., priority 2005, published 2006)
Each block holds one compound with its values, some of them ahead of it.

How the values were obtained:
5/6 Nx rats [1] = assay: Blood chemistries in 5/6 nephrectomy rat model of CKD (Example 1); type: in vivo; details: 14 days
Description: Male Wistar rats weighing 250 g were purchased from the Animal Breeding Facility of the University of Cordoba (Spain). Rats were housed with a 12 hr/12 hr light/dark cycle and given ad libitum access to normal diet (calcium=0.9%, phosphorus=0.6%). The experimental protocols were reviewed and approved by the Ethics Committee for Animal Research of the Universidad de Cordoba (Spain), and all animals received humane care in compliance with the Principles of Laboratory Animal Care, formulated by the National Society for Medical Research and the Guide for the Care and Use of Laboratory Animals prepared by the National Academy of Science.
(§1) The rodent model of CKD used in these studies was induced by 5/6 nephrectomy (5/6 Nx), a two-step procedure that reduces the original functional renal mass by five-sixths (5/6). In the first step, animals were anesthetized using xylazine (5 mg/kg, ip) and ketamine (80 mg/kg, ip), a 5-8 mm incision was made on the left medio-lateral surface of the abdomen, and the left kidney was exposed. The left renal artery was visualized and 2 of the 3 branches tightly ligated, after which the kidney was inspected for infarct and returned to an anatomically neutral position within the peritoneal cavity. The abdominal wall and skin incisions were closed with suture, and the rat placed back into its home cage. After 1 week of recovery, the animal was reanesthetised and a 5-8 mm incision was made on the right medio-lateral surface of the abdomen. The right kidney was exposed and unencapsulated, the renal pedicle clamped and ligated, and the kidney was removed. The ligated pedicle was returned to a neutral anatomical position and the abdomen and skin incisions closed with suture materials. The animal was allowed to recover in its home cage. Sham-operated animals underwent the same procedures without renal manipulation.
(§2) After the second surgery, the diet was changed to one with decreased calcium (0.6%) and increased phosphorus (0.9%) content. The rats were randomized (based on the normal distribution of baseline body weights) into 6 experimental groups: sham-operated (n=13) (used as a control), 5/6 Nx+vehicle (saline) (n=10), 5/6 Nx+calcitriol 80 ng/kg (Calcijex, Abbot) ip every other day (n=10), 5/6 Nx+Compound A 1.5 mg/kg per day sc (n=10) (Amgen, Thousand Oaks, Calif. USA), 5/6 Nx+Compound A 3 mg/kg per day sc (n=10), or 5/6 Nx+combination calcitriol 80 ng/kg and Compound A 1.5 mg/kg (n=10) dosed as above. Treatments were maintained for 14 days. The rats were sacrificed by aortic puncture and exsanguination under general anesthesia (ip sodium thiopenthal) 24 hours after the last dose of drug.
Blood for chemistry analyses was collected from the abdominal aorta at the end of the treatment period. Blood for measurements of ionized calcium levels was collected in heparinized syringes and immediately analyzed using a Ciba-Corning 634 ISE Ca++/pH Analyzer (Ciba-Corning Essex, England). Afterwards, plasma was separated by centrifugation and stored at −70° C. until assayed. PTH levels were quantified according to the vendor's instructions using a rat PTH(1-34) immunoradiometric assay kit (Immunotopics, San Clemente, CA). Serum creatinine, phosphorous, and total calcium were measured by spectrophotometry (Sigma Diagnostics, St. Louis, Mo., USA).
Values were expressed as the mean±standard error (SE). The difference between means for two different groups was determined by t test; the difference between means for three or more groups was assessed by ANOVA. P<0.05 was considered significant.

5/6 Nx rats [2] = assay: Vascular calcification regression in 5/6 Nx rats on high phosphorus diet with calcitriol; type: in vivo, rat
Protocol: Animals were 5/6 Nx as previously described and placed on a high phosphorus diet (0.6% Ca; 1.2% P) for 14 days. Animals were divided into four groups (A,B,C and D n=4-5 animals per group), one group (A) received vehicle (saline 0.2 ml i.p.) while the remaining three groups (B,C and D) received calcitriol (80 ng/kg every other day i.p.) for the course of the study (28 days). On day 14 two groups (C and D) were converted to normal diet (Ca 0.9%; P 0.6%) and group C was administered Compound A at 3 mg/kg daily p.o.), while group D received vehicle (0.5 ml of 10% captisol in water p.o.) daily. The remaining groups (A and B) were kept on the high phosphorus diet and administered either calcitriol or vehicle for the course of the study (28 days). On day 28 all animals were sacrificed (CO2) and the aortas removed for determining aortic P and Ca content (mg/g of tissue) as previously described

5/6 Nx rats [3] = assay: Ex vivo assessment of vascular calcification: aortic calcium and phosphorus content, von Kossa staining (Example 1); type: in vivo, rat; details: 14 days; for Mineral deposits in the aorta (von Kossa staining): single agents
Protocol: as §1, §2
Following sacrifice, the abdominal aortas were dissected and divided in two parts. One part was fixated in 10% buffered formalin and subsequently sectioned and stained for mineralization by the von Kossa method. The other was dimineralized in 10% formic acid, and the arterial tissue calcium and phosphorous content measured in the supernatant according to the method described by Price et al Arterioscler Thromb Vasc Biol 20:317-27, 2000.

5/6 Nx rats [4] = assay: Serum PTH, ionized Ca, P and creatinine in 5/6 Nx rats given paricalcitol and/or Compound B (Example 3); details: 14 days
5/6 Nx rats [5] = assay: Ca and P content of thoracic aorta in 5/6 Nx rats given paricalcitol and/or Compound B (Example 3); type: in vivo, rat; details: 14 days
Description: Wistar rats (200-250g), fed a 0.6% Ca and 1.2% P diet, were 5/6 nephrectomized (5/6 Nx) or sham-operated (sham).

5/6 Nx rats [6] = assay: Soft tissue mineralization by Von Kossa staining in 5/6 Nx rats (Example 4); type: in vivo, rat; details: 5/6 Nx rats, 14 days
Description: Wistar rats (200-250g), fed a 0.6% Ca and 1.2% P diet, were 5/6 nephrectomized (5/6 Nx).

[7] = Compound A 1.5 mg/kg per day sc, calcitriol 80 ng/kg ip every other day, or both, mean±SE
[8] = Compound A 3 mg/kg per day sc, mean±SE
[9] = Group C: normal diet from day 14 + Compound A 3 mg/kg daily p.o. while still receiving calcitriol, vs group D, day 28
[10] = concurrent treatment with Compound A 1.5 mg/kg and calcitriol 80 ng/kg
[11] = 5/6 Nx rats, compared to 5/6 Nx+vehicle
[12] = serum, 5/6Nx rats, paricalcitol 240 ng/kg every 48 hr ip, Compound B 1.5 mg/kg every 48 hr sc
[13] = 5/6 Nx rats, compared to vehicle treated 5/6 Nx animals (Compound B also vs sham)
[14] = thoracic aorta, 5/6Nx rats, paricalcitol 240 ng/kg every 48 hr ip, Compound B 1.5 mg/kg every 48 hr sc
[15] = calcitriol 80 ng/kg every 48 hr ip
[16] = Group B: high phosphorus diet + calcitriol 80 ng/kg every other day i.p. 28 days, vs Group A (vehicle)

Calcitriol mediated increase in serum creatinine levels (5/6 Nx rats [1]; Compound A 1.5 mg/kg per day sc included with calcitriol 80 ng/kg): decreased
SMILES: COc1cccc([C@@H](C)NCCCc2ccccc2Cl)c1.Cl [Compound A, N-(3-[2-chlorophenyl]-propyl)-R-α-methyl-3-methoxybenzylamine HCl]
Serum PTH concentration (5/6 Nx rats [1]; Compound A 1.5 mg/kg per day sc alone or with calcitriol 80 ng/kg, mean±SE): 73.5 ± 12.8 pg/mL
Serum ionized calcium levels (5/6 Nx rats [1]; [7]): 1.20 ± 0.02 mmol/L
Serum phosphorus levels (5/6 Nx rats [1]; [7]): 6.6 ± 0.3 mg/dL
Serum ionized calcium levels (5/6 Nx rats [1]; [8]): 1.22 ± 0.02 mmol/L
Serum phosphorus levels (5/6 Nx rats [1]; [8]): 6.9 ± 0.4 mg/dL
Aortic calcium content (5/6 Nx rats [2]; [9]): lower
Aortic phosphorus content (5/6 Nx rats [2]; [9]): significant (p<0.05) reduction
Raised phosphorus content in the aortic tissue, in words (5/6 Nx rats [3]; Compound A alone 1.5 or 3 mg/kg): did not
Development of aortic calcification (von Kossa staining) (5/6 Nx rats [3]; addition of Compound A 1.5 mg/kg to the calcitriol-treatment regimen): prevented the development of aortic calcification
Calcitriol-induced increase in aortic calcium (5/6 Nx rats [3]; [10]): significantly (P=0.002) attenuated
Calcitriol-induced increase in aortic phosphorus (5/6 Nx rats [3]; [10]): significantly (P=0.013) attenuated
Mineral deposits in the aorta (von Kossa staining) (5/6 Nx rats [3]): not observed

Creatinine, change in words (5/6 Nx rats [4]; [11]): no changes
Creatinine (5/6 Nx rats [4]; 5/6Nx rats, paricalcitol 240 ng/kg every 48 hr ip, Compound B 1.5 mg/kg every 48 hr sc): 2.32 ± 0.43 mg/dL
Mineralization in kidney (Von Kossa staining) (5/6 Nx rats [6]; paricalcitol 240 ng/kg every 48 hr ip): increased mineralization
SMILES: C[C@H](/C=C/[C@H](C)C(C)(C)O)[C@H]1CC[C@H]2/C(=C/C=C3C[C@@H](O)C[C@H](O)C3)CCC[C@]12C [Paricalcitol, paricalcitol, reference compound]
Blood ionized calcium, change in words (5/6 Nx rats [4]; [11]): no changes
Serum P levels, change in words (5/6 Nx rats [4]; [11]): no changes
Serum PTH levels, change in words (5/6 Nx rats [4]; [11]): significantly (p<0.05) decreased
P (5/6 Nx rats [4]; [12]): 14.7 ± 2.1 mg/dL
PTH (5/6 Nx rats [4]; [12]): 250 ± 61 pg/mL
Aortic Ca content, change in words (5/6 Nx rats [5]; [13]): significantly increased
Aortic P content, change in words (5/6 Nx rats [5]; [13]): significantly increased
Aortic Ca (5/6 Nx rats [5]; [14]): 9.5 ± 2.2 mg/g
Aortic P (5/6 Nx rats [5]; [14]): 6.2 ± 2.4 mg/g

Serum creatinine levels (5/6 Nx rats [1]; calcitriol 80 ng/kg ip every other day, alone or with Compound A 1.5 mg/kg per day sc, mean±SE): 1.05 ± 0.07 mg/dL
Mineralization in heart (Von Kossa staining) (5/6 Nx rats [6]; [15]): increased mineralization
Mineralization in kidney (Von Kossa staining) (5/6 Nx rats [6]; [15]): increased mineralization
Mineralization in lung (Von Kossa staining) (5/6 Nx rats [6]; [15]): increased mineralization
SMILES: C=C1/C(=C\C=C2/CCC[C@]3(C)[C@@H]([C@H](C)CCCC(C)(C)O)CC[C@@H]23)C[C@@H](O)C[C@@H]1O [calcitriol, reference compound]
Serum ionized calcium levels (5/6 Nx rats [1]; [7]): 1.28 ± 0.02 mmol/L
Serum phosphorus levels (5/6 Nx rats [1]; [7]): 10.2 ± 0.9 mg/dL
Aortic calcium content (5/6 Nx rats [2]; [16]): significant (p<0.05) increases
Aortic phosphorus content (5/6 Nx rats [2]; [16]): significant (p<0.05) increases
Phosphorus content in the aortic tissue (5/6 Nx rats [3]; calcitriol 80 ng/kg ip every other day): 2.1±1 mg/g tissue
Aortic calcium content (5/6 Nx rats [3]; calcitriol 80 ng/kg ip every other day, mean±SE): 4.2±1.1 mg/g tissue
Mineral deposits in the aorta (von Kossa staining) (5/6 Nx rats [3]): marked von Kossa staining
